According to patent US7507792B2, “MDA-7 proteins and methods of use thereof” (The Trustees of Columbia University In The City of New York, priority 1993, dated 2009):
“Also recorded” adds a separate entry of the source.

Columns and labels:
Type in all cases: cell-based, human
[1] = tested on: H0-1 cells; experiment: Northern blotting analysis of steady-state mRNA levels; conditions: FIG. 1 concentrations
Description: Steady-state levels of specific mRNAs were determined by Northern blotting analysis of total RNA probed with appropriate ^32P-labeled gene probes as described previously (14-16). RNAs were analyzed from cells treated with inducer for 24 hours, treated for 24 hours with inducer followed by growth for 72 hours in the absence of inducer, or treated continuously for 96 hours with the inducer. The concentration of inducing compounds used were the same as those used for growth studies. The effect of conditioned medium on gene expression changes was determined by treating H0-1 cells for 24 hours with a 1:2 dilution of conditioned medium (equal volumes of conditioned medium and DMEM supplemented with 10% fetal bovine serum (DMEM-10) or for 96 hours with a 1:4 dilution of conditioned medium (1 vol. of conditioned medium to 3 vol. of DMEM-10). The probes used in the present study were specific for β-actin (17), γ-actin (17), c-jun (18), c-myc (19), fibronectin (20), gro/MGSA (21), HLA Class I antigen (22), HLA Class II antigen (HLA-DRβ) (22), α5 integrin (23), β1 integrin (24), ISG-15 (25), ISG-54 (25), jun-B (26), and tenascin (27). Northern blots were also probed with a ^32P-labeled GAPDH gene (15) to verify similar mRNA expression under the various experimental conditions. Following hybridization, the filters were washed and exposed for autoradiography.

[2] = tested on: mda-4; experiment: mda-4 expression (Northern blotting); conditions: H0-1
Description: (§1) The mass excision of the library was performed using ExAssist helper phage as described above. The SOLR strain of Escherichia coli and cDNA phagemids were mixed at 37° C. for 15 min and plated onto LB plates containing ampicillin and IPTG/X-gal. White colonies were chosen at random, isolated and grown in LB medium. Plasmid minireps and restriction enzyme digestions were performed to confirm the presence of inserts. The inserts were isolated and used as robes for Northern blotting analysis (5,25). […] Radiolabeled probes were generated by random oligonucleotide priming (25). Prehybridization, hybridization, posthybridization washes, and autoradiography were performed as described (5,18,25).

[3] = tested on: mda-5; experiment: mda-5 expression (Northern blotting); conditions: H0-1
Description: as §1

[4] = tested on: mda-8; experiment: mda-8 expression (Northern blotting); conditions: H0-1
Description: as §1

[5] = tested on: mda-9; experiment: mda-9 expression (Northern blotting); conditions: H0-1
Description: as §1

[6] = tested on: H0-1 cells; experiment: Northern blotting of H0-1 RNA probed with mda cDNA clones; conditions: 24 hours
Description: Ten micrograms of total cellular RNA were separated on a 1% agarose gel, transferred to nylon membranes and then hybridized individually with radioactive probes prepared using appropriate inserts from the cDNA clones.
as §1

[7] = tested on: HL-525 cells; experiment: OKM1 reactivity (immunofluorescence); conditions: TPA 3 nM, RA 1 μM or Vit D3 400 nM, percent OKM1 positive cells
Description: (§2) HL-60 cells were originally provided by Dr. R. C. Gallo (National Cancer Institute, Bethesda, Md.) (Collins et al., 1978; Huberman & Callaham, 1979). HL-60 cells designated HL-525 were derived by cloning HL-60 cells after subculturing 102 times in the presence of increasing concentrations (up to 3 μM) of TPA at 5- to 8-day intervals (Homma et al., 1986; Mitchell et al., 1986). […] Prior to the experiments described in this study, the HL-525 cells were subcultured more than 20 times in the absence of TPA. Cells were grown in 100-mm tissue culture dishes in RPMI 1640 medium supplemented with 20% fetal bovine serum, penicillin (100 units/ml) and streptomycin (100 μg/ml) (Grand Island Biological Co., NY) at 37° C. in an atmosphere of 5% CO2 in air in a humidified incubator. The 1,25-(OH)2D3(Vit D3) and TPA were dissolved in a final concentration of 0.01% DMSO, and all-trans retinoic acid (RA) was dissolved in 0.1% DMSO in culture medium. […] Control cultures were treated with DMSO at a final concentration of 0.1% in culture medium. For experiments designed to test the effect of DMSO on HL-60 and HL-525 cells, DMSO was added to tissue culture medium at a final concentration of 1%. Stock solutions of CHX (10 mg/ml) were prepared in culture medium. CHX was added at a final concentration of 10 μg/ml. To examine a requirement for protein synthesis on mda-6 gene expression, HL-60 or HL-525 cells were seeded into 150 mm Petri dishes (5×10^5 cells/ml) in 30 ml of medium. CHX was added to a final concentration of 10 μg/ml 15 min prior to the addition of TPA to 3 nM. Cells were harvested at various times after addition of TPA for subsequent RNA isolation and analysis.
(§3) Cell counts were determined by hemocytometer chamber counting. Immunofluorescence tests for reactivity with the OKM1 antibody (Ortho Pharmaceutical Corp., Raritan, N.J.) were performed as previously described (Murao et al., 1983).

[8] = tested on: HL-60 cells; experiment: OKM1 reactivity (immunofluorescence); conditions: TPA 3 nM, RA 1 μM or Vit D3 400 nM, percent OKM1 positive cells
Description: as §2, §3

[9] = 96 hours, doses of FIG. 15 legend
[10] = 24 hours, doses of FIG. 19, phenyl butyrate 24 hours, 4 days or 7 days

Row | SMILES | HLA Class I antigen gene expression ([1]; 96 h) | fibronectin expression ([1]; 96 h) | induction of gro/MGSA gene expression ([1]; 96 h) | tenascin expression ([1]; 96 h) | mda-5 expression [3, 9] | mda-8 expression [4, 9] | mda-9 expression [5, 9] | OKM1 reactivity, Days of induction 4 [7] | OKM1 reactivity, Days of induction 6 [7] | OKM1 reactivity, Days of induction 2 [8] | OKM1 reactivity, Days of induction 4 [8] | OKM1 reactivity, Days of induction 6 [8] | further results
1 | C=C(C)[C@@]12O[C@@]3(c4ccccc4)O[C@@H]1[C@@H]1[C@@H]4O[C@]4(CO)[C@@H](O)[C@]4(O)C(=O)C(C)=C[C@H]4[C@@]1(O3)[C@H](C)[C@H]2OC(=O)/C=C/C=C/c1ccccc1 [MEZ, mezerein] | did not significantly alter | less potent | did not | decreased tenascin expression | No change in expression | No change in expression | No change in mda-9 expression | – | – | – | – | – | c-jun and jun-B expression ([1]; 96 hours): increase; c-myc expression ([1]; 96 hours): downregulated; mda-4 expression [2, 9]: No or only a small change in expression; mda-5 expression [3, 10]: No change in expression; mda-8 expression [4, 10]: No change in expression; mda-9 expression [5, 10]: Increased expression; mda-3 expression [6]: induced; also recorded: Increased expression
2 | CC1=C(/C=C/C(C)=C/C=C/C(C)=C/C(=O)O)C(C)(C)CCC1 [RA, trans-retinoic acid] | did not significantly alter | least effective | did not | decreased tenascin expression | No change in expression | No change in expression | No change in mda-9 expression | 10% | 13% | 49% | 76% | 77% | α5 integrin expression ([1]; 96 h): reduced; β-actin and γ-actin expression ([1]; 96 h): did not significantly alter; mda-4 expression [2, 10]: No or only a small change in expression
3 | CCCCCCCCCCCCCC(=O)O[C@@H]1[C@@H](C)[C@@]2(O)[C@@H](C=C(CO)C[C@]3(O)C(=O)C(C)=C[C@@H]23)[C@@H]2C(C)(C)[C@]12OC(C)=O [TPA, 12-O-tetradecanoyl-phorbol-13-acetate] | – | – | – | – | – | – | – | 8% | 4% | 55% | 81% | 95% | –
